In ChEMBL document CHEMBL1156829 (Proc Natl Acad Sci U S A, 2008):

What was measured:
[1] = system: Plasmodium falciparum; assay: NOVARTIS: Inhibition of Plasmodium falciparum W2 (drug-resistant) proliferation in erythrocyte-based infection assay; assay type: functional, organism-based; details: Plasmodium falciparum, W2; read-out: EC50
[2] = system: Plasmodium falciparum; assay: NOVARTIS: Inhibition of Plasmodium falciparum 3D7 (drug-susceptible) proliferation in erythrocyte-based infection assay; assay type: functional, organism-based; details: Plasmodium falciparum, 3D7
[3] = NOVARTIS: Cytotoxicity against human hepatocellular carcinoma cell line (Huh7); assay type: toxicity, cell-based, Huh-7; details: Huh7 cells (hepatocellular carcinoma cell line)

SMILES | EC50 [1] [nM] | EC50 [2] [nM] | CC50 [3] [nM]
CC(=O)Oc1cccc(C=c2sc3ncnn3c2=O)c1 | > 989 | > 1250 | > 10000
O=C(Nc1ccc(-c2nc3ccc(-c4nc5ccc(NC(=O)c6ccccc6[N+](=O)[O-])cc5[nH]4)cc3[nH]2)cc1)c1ccccc1[N+](=O)[O-] | 987 | > 1250 | > 10000
O=C(Nc1ccc(-c2nc3ccc(NC(=O)c4ccc(Br)cc4)cc3[nH]2)cc1)c1ccc(Br)cc1 | 413 | 315 | 4190
COc1cccc2c1C(=O)c1c(O)c3c(c(O)c1C2=O)C[C@@](O)(C(=O)CO)C[C@@H]3O[C@@H]1C[C@H](N)[C@H](O)[C@H](C)O1 | 47.7 | 48.6 | 485
COc1cccc2c(C)cc(NCc3ccccc3Cl)nc12 | > 985 | > 1250 | > 10000
COc1ccc(-n2nc(C(=O)NCCC3=CCCCC3)c3ccccc3c2=O)cc1 | > 9810 | 7220 | > 100000
CC1(C)CC(=O)C2=C(C1)NC(=O)CC2c1ccc(C(C)(C)C)cc1 (stereo unspecified) | > 1010 | > 1250 | > 10000
N#C/C(=C\c1cc2ccccc2nc1Cl)c1nc(-c2ccc(Cl)c(Cl)c2)cs1 | > 1010 | > 1250 | > 10000
COc1ccc(/C=C2\SC(=O)NC2=Nc2ccccc2)c(OC)c1 | 1010 | 1100 | > 10000
CCCCCCN(C(=O)c1ccc(C(C)(C)C)cc1)C(CC)c1nc2cc(Cl)ccc2c(=O)n1CC (stereo unspecified) | 1010 | 954 | > 10000
CCN1CCC(N2CCC(n3c(C4CCC4)nc4cc(F)ccc43)CC2)CC1 | 2170 | 453 | 21500
COC(=O)C1=C(C)N/C(=C\c2cc(C)n(-c3cc(Cl)ccc3Cl)c2C)C1=O | 1010 | 1520 | > 10000
O=C(NCCCCCCNC(=O)Nc1nc(-c2ccc(F)cc2)cs1)Nc1nc(-c2ccc(F)cc2)cs1 | 5060 | 5970 | 51600
Cc1cc(N2CCC(C)CC2)nc2ccc(NC(=O)c3ccc([N+](=O)[O-])o3)cc12 | 2140 | 1660 | 21900
Cc1nc2ccc(-c3ccc4nc(C)[nH]c4c3)cc2[nH]1 | 844 | 2090 | 8630
COc1ccc2oc(=O)c(C(=O)N(C)c3ccc(S(N)(=O)=O)cc3)cc2c1 | > 1010 | > 1250 | > 10000
CCCCN(C)C(=O)c1sc2ncn(CC(=O)N(CC)CC)c(=O)c2c1C | > 1010 | > 1250 | > 10000
N#Cc1ccc(NC(=O)c2cc(Cl)ccc2O)cc1 | 1010 | 1090 | > 10000
Cc1nc(N2CCN(C)CC2)c2c(C)c(C(=O)NCCN(C)C)sc2n1 | > 1000 | > 1600 | > 10000
CN(CC(=O)NC(C)(C)C)S(=O)(=O)c1ccccc1 | > 1000 | > 1250 | > 10000
CCOc1ccc2nc3cc(NC(=O)c4ccc(C)cc4)ccc3c(N)c2c1 | 997 | > 1190 | > 10000
CCOC(=O)c1cnc2ccc(OCC)cc2c1NCCN(CC)CC | > 988 | 832 | > 10000
O=C1CN(C(=O)CC2CCCCC2)C(c2ccccc2)c2cc(Cl)ccc2N1 (stereo unspecified) | 4570 | 7610 | 46300

SMILES | EC50 [1] [nM] | EC50 [2] [nM] | CC50 [3] [nM]
CC12CN3CC(C)(CN(C1)C3c1ccccc1)C2=O (stereo unspecified) | > 10000 | > 11200 | > 100000
O=C(COC(=O)c1c2c(nc3ccccc13)CCCCCCCCCC2)c1ccc(Cl)cc1 | > 10000 | > 11200 | > 100000
COc1ccc(CN(C)C(C)C)cc1OC1CCN(C(=O)C2CCC2)CC1 | > 10000 | > 11200 | > 100000
CN(CCCNc1nc2ccccc2c2nc(-c3cccnc3)nn12)Cc1ccccc1 | > 996 | > 771 | > 10000
COc1cc(C=NNC(=O)c2cccc3ccccc23)ccc1OCC(N)=O | > 989 | > 1250 | > 10000
CCOC(=O)c1c(NC(=O)CSc2nnc(CNC(=O)c3cccs3)n2-c2ccccc2OC)sc2c1CCC2 | > 982 | > 619 | > 10000
O=C(NNc1nc(-c2cc3ccccc3oc2=O)cs1)c1ccccc1 | > 981 | > 1250 | > 10000
O=C(Oc1ccc(N2C(=O)c3ccc([N+](=O)[O-])cc3C2=O)cc1)c1ccco1 | > 10000 | > 10000 | > 100000
Cc1[nH]c(=O)[nH]c(=O)c1S(=O)(=O)Nc1ccc2oc(-c3ccncc3)nc2c1 | > 10000 | > 10000 | > 100000
Cc1c(Cl)cccc1NC(=S)N(CCCN(C)c1ccccc1)Cc1cccn1Cc1ccc(Cl)cc1 | > 10000 | > 7300 | > 100000
CCCc1ccc(OCCNC(=O)CCNC(=O)Nc2cccc(Cl)c2)cc1 | > 999 | > 1380 | > 10000
O=C(/C=C/c1ccccc1)c1c(-c2ccccc2)c2cc([N+](=O)[O-])ccc2[nH]c1=O | > 976 | > 1640 | > 10000
CS(=O)(=O)N(CCc1ccccc1)CC(O)CN1CCC(CNC(=O)NC(c2ccccc2)c2ccccc2)CC1 (stereo unspecified) | 1020 | > 1530 | > 10000
CCCCOc1ccc(C(=O)Nc2c3c(nn2-c2ccc(C)cc2C)CSC3)cc1 | 1020 | > 1520 | > 10000
CCN(CC)C(=O)c1ccc2c(=O)n(Cc3cccc(Br)c3)c(=S)[nH]c2c1 | 1020 | > 1250 | > 10000
CCC(=O)NCc1nc2ccccc2n1Cc1ccc(C)cc1 | > 9760 | > 12500 | > 100000
COc1ccc(CNC(=O)C(Cc2c[nH]c3ccccc23)N2CCS(=O)(=O)CC2)cc1 (stereo unspecified) | 784 | 851 | 8040
CCc1ccc(C=NNC(=O)COc2ccc3c(c2)OCO3)cc1 | > 975 | > 1230 | > 10000
C=C(C)C(=O)OCCc1ccc(O)c(-n2nc3ccccc3n2)c1 | 1010 | > 1250 | > 10000
CC(=O)O[C@]1(C(C)=O)CCC2C3C=CC4=CC(=O)CC[C@]4(C)C3CC[C@@]21C (stereo partly specified) | 1010 | > 1210 | > 10000
CC(C)CC1C(c2ccc(Cl)cc2)C(C(=O)c2ccccc2)C2(C(=O)Nc3ccc(Br)cc32)N1C(=O)NCc1ccccc1 (stereo unspecified) | > 1020 | 775 | > 10000
O=C(NN1CCOCC1)c1ccc(Br)cc1 | > 997 | > 1510 | > 10000
c1cc(NCc2ccc3c(c2)OCO3)n2ncc(-c3ccoc3)c2n1 | > 1020 | > 1250 | > 10000

SMILES | EC50 [1] [nM] | EC50 [2] [nM] | CC50 [3] [nM]
CC1(C)Cc2c(sc(NC(=O)CCl)c2C#N)CO1 | 2080 | 2040 | 20500
Cc1ccc(-n2c(SCc3cccc(C)c3)nnc2C(Cc2ccccc2)NC(=O)NC(C)(C)C)cc1 (stereo unspecified) | 1010 | 735 | > 10000
CC1C/C(=C/c2ccncc2)C(=O)/C(=C/c2ccncc2)C1 (stereo unspecified) | 990 | 1210 | > 10000
O=C(NC(=C(Cl)Cl)[P+](c1ccccc1)(c1ccccc1)c1ccccc1)c1ccc(F)cc1 | 171 | 954 | 1740
O=C(CN1CCN(C(=O)c2ccco2)CC1)Nc1cc(C(F)(F)F)ccc1Cl | > 10000 | 4040 | > 100000
CCC(CC)C(=O)N1CCOc2c(cc(-c3csc4ccccc34)cc2OCc2ccccn2)C1 | 1010 | 1110 | > 10000
CCOC(=O)C1=C(C)N/C(=C\c2cc(C)n(-c3ccc(C)cc3)c2C)C1=O | 988 | 1840 | > 10000
O=C1CCC(c2ccc(Cl)c(Cl)c2)c2ccc(O)cc21 (stereo unspecified) | > 914 | 449 | > 9270
CC(C)(c1ccc(Oc2ccc(NC(=O)C(F)(F)F)cc2)cc1)c1cccc(Oc2ccc(NC(=O)C(F)(F)F)cc2)c1 | > 986 | 2060 | > 10000
O=S(=O)(NC1CCCC1)c1cccc2nonc12 | > 982 | > 1600 | > 10000
O=C(CC(=NNc1nc(NN=C(CC(=O)C(F)(F)F)C(F)(F)F)nc(N(c2ccccc2)c2ccccc2)n1)C(F)(F)F)C(F)(F)F | 1010 | 670 | > 10000
COc1ccc(-c2csc3ncn(N)c(=O)c23)cc1 | > 1010 | > 1250 | > 10000
ClC12CC3CC(C1)CC(n1nnc4ccccc41)(C3)C2 | > 1020 | > 1250 | > 10000
NC12CC3CC(C1)CC(SSC14CC5CC(CC(N)(C5)C1)C4)(C3)C2 | 191 | 208 | 1960
CCCN(CC(=O)Nc1cc(C(C)(C)C)nn1-c1cccc(C)c1)C(=O)c1cccc([N+](=O)[O-])c1 | 1010 | > 1630 | > 10000
O=C1c2cccc3cccc(c23)C(=O)N1c1ccc(-c2c3ccccc3c(-c3ccc(N4C(=O)c5cccc6cccc(c56)C4=O)cc3)c3ccccc23)cc1 | 1000 | 1050 | > 10000
COc1ccc2[nH]c3c(=O)n(C)cnc3c2c1 | 1000 | > 1410 | > 10000
CN1C(=O)NC(c2cccnc2)C(C(=O)c2cccs2)C1(O)C(F)(F)F (stereo unspecified) | > 10000 | > 11200 | > 100000
COc1cccc(C2CC3(CC(C)(C)NC(=S)N3)Oc3cc(OC(C)=O)c(Cl)cc32)c1 (stereo unspecified) | > 995 | > 1300 | > 10000
CCCCCN(CC(=O)Nc1cc(C(C)(C)C)nn1-c1ccc(Cl)c(Cl)c1)C(=O)c1cccc(OC)c1 | 992 | 597 | > 10000
Cc1ccc(-c2cc(C)[n+](C)c(-c3ccc(C)cc3)c2)cc1 | 763 | 313 | 7520
